According to publication PMC8869400, “Inhibition Mechanism of Components Isolated from Morus alba Branches on Diabetes and Diabetic Complications via Experimental and Molecular Docking Analyses” (Antioxidants, 2022):
Converted amounts (≈) assume the structure as drawn. Read-outs that look alike come from different tables or passages of the source.

What was measured:
AGE formation = assay: In vitro assay for inhibition of AGE formation (BSA-fructose/glucose fluorescence); assay type: biochemical; conditions: for IC50: read-out: AGEs IC50
Procedure: The inhibition of AGE formation was evaluated using a modification of a previously published method. To prepare the reaction solution, 10 mg/mL of bovine serum albumin was added to 0.2 M fructose, 0.2 M glucose, and […] sodium azide. The reaction solution was mixed with various concentrations of the samples dissolved in 10% DMSO until the total volume was 1 mL. After an 8-day incubation at 37 °C, the fluorescence intensity of the reaction products was measured using a VERSA MAX GEMINI XPS fluorescence microplate reader (Molecular Devices) with excitation and emission wavelengths of 350 nm and 450 nm, respectively. After obtaining the results, we determined the IC50 values as the result on day 4. Aminoguanidine hydrochloride was used as the positive control.

[1] = In vitro assay for peroxynitrite scavenging activity (DHR 123); conditions: mean ± SD of triplicate experiments; for IC50: read-out: ONOO− IC50
Procedure: The ONOO^− scavenging activity assay was conducted using a previously published method that involved measuring highly fluorescent rhodamine 123, which is rapidly converted from non-fluorescent DHR 123 in the presence of ONOO^−. Briefly, the rhodamine buffer (pH 7.4) was composed of 100 μM DTPA and 5 μM DHR 123. The assay buffer was prepared prior to use and placed on ice. The fluorescence intensity of the oxidized DHR 123 in the background and sample was measured 30 s after treatment with (and without) 200 μM authentic ONOO^−. The fluorescence intensity of the oxidized DHR 123 was measured using a VERSA MAX GEMINI XPS fluorescence microplate reader (Molecular Devices., CA, USA) at excitation and emission wavelengths of 485 and 530 nm, respectively. L-Penicillamine was used as the positive control.

PTP1B [2] = target: T1, PTP1B (Homo sapiens, UniProt P18031); assay: In vitro assay for PTP1B inhibitory activity (pNPP); assay type: biochemical
T1 construct: purchased Enzo Life Sciences
T1 sequence (P18031 1-435): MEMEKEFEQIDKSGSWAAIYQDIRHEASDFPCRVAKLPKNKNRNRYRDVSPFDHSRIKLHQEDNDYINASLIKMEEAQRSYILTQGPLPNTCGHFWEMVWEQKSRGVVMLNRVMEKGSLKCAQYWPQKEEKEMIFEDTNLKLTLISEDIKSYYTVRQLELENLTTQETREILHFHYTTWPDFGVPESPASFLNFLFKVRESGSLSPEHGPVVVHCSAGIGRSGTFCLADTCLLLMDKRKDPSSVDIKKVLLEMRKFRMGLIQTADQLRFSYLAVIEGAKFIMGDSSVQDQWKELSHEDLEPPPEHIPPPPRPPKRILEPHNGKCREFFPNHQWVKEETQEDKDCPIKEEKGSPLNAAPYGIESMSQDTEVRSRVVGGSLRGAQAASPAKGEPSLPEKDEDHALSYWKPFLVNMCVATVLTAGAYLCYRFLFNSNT

α-glucosidase = target: T2, α-glucosidase (Saccharomyces cerevisiae, UniProt P53341); assay: Kinetic study for α-glucosidase inhibition (Lineweaver–Burk and Dixon plots); assay type: biochemical; conditions: for α-Glucosidase Inhibition Mode: determined using Lineweaver–Burk plots
T2 construct: purchased Sigma-Aldrich Chemical Company
T2 sequence (P53341 whole entry): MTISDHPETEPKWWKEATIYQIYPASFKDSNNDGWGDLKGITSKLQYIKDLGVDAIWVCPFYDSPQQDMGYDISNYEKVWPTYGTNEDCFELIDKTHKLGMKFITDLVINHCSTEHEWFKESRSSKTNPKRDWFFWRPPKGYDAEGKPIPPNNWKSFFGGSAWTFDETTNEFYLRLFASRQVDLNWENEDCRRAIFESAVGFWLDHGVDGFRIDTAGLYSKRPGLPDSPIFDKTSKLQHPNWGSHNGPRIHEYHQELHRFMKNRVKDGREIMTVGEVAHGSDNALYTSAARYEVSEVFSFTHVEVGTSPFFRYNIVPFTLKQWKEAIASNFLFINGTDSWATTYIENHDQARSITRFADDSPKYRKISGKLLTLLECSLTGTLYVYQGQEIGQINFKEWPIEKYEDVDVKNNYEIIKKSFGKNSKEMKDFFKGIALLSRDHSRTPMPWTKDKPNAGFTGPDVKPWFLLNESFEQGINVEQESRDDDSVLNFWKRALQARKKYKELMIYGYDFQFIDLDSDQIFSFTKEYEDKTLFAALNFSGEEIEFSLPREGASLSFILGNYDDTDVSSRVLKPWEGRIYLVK

PTP1B [3] = target: T1, PTP1B; assay: Kinetic study for PTP1B inhibition (Lineweaver–Burk and Dixon plots); assay type: biochemical; conditions: for PTP1B Inhibition Mode: determined using Lineweaver–Burk plots
PTP1B [4] = target: T1, PTP1B; conditions: at 20 μg/mL; ref 43 (Zhao et al.); cited from earlier work
[5] = mean ± SD of triplicate experiments, result on day 4
[6] = mean ± SD of triplicate experiments, read-out: PTP1B IC50
[7] = determined using Dixon plots, read-out: α-Glucosidase Ki
[8] = determined using Dixon plots, read-out: PTP1B Ki

Row | Structure (SMILES) | IC50 (AGE formation; [5]) | IC50 [1] | IC50 (PTP1B [2]; [6]) | Ki (α-glucosidase; [7]) | α-Glucosidase Inhibition Mode (α-glucosidase) | further results
1 | Cl.N=C(N)NN [Aminoguanidine, Aminoguanidine hydrochloride, reference compound] | 890 ± 70.2 µM |  |  |  |  | IC50 Values AGEs (AGE formation; [5]): 52.62 ± 6.70 µg/mL
2 | O=C1c2c(O)cc(O)cc2O[C@H](c2ccc(O)cc2O)[C@H]1O [Dihydromorin (3), Dihydromorin] | 118 ± 7.89 µM | 2.26 ± 0.12 µM | 180 µM | 10.2 µM | Mixed | 
3 | CC(C)=CCc1c(-c2ccc(O)cc2O)oc2c(CC=C(C)C)c(O)cc(O)c2c1=O [Kuwanon C (1), Kuwanon C] | > 100 µM | 12.9 ± 0.68 µM | 41.4 ± 1.64 µM | 6.85 µM | Mixed | Ki (PTP1B [3]; [8]): 39.4 µM; PTP1B Inhibition Mode (PTP1B [3]): Non-competitive; inhibitory activity on AGE formation (AGE formation; at 100 μg/mL): no inhibitory activity on AGE formation; PTP1B inhibition (PTP1B [4]): 58%
4 | CC(C)=CCc1c(-c2ccc(O)cc2O)oc2c(C3C=C(C)CC(c4ccc(O)cc4O)C3C(=O)c3ccc(O)cc3O)c(O)cc(O)c2c1=O (stereo not drawn) [Kuwanon G (7), Kuwanon G] | 69.1 ± 1.49 µM | 6.35 ± 0.36 µM | 16.2 ± 0.29 µM |  | Mixed | Ki (PTP1B [3]; [8]): 12.4 µM; PTP1B Inhibition Mode (PTP1B [3]): Mixed; PTP1B Inhibition Mode (PTP1B [3]; listed as kuwanon G (7)): mixed-type; Ki (α-glucosidase): 2.03 µM
5 | CC(C)(S)[C@H](N)C(=O)O [L-Penicillamine, reference compound] |  | 6.69 ± 0.52 µM |  |  |  | IC50 Values ONOO− [1]: 1.37 ± 0.19 µg/mL (≈ 9.18 µM)
6 | Oc1cc(O)cc(-c2cc3ccc(O)cc3o2)c1 [Moracin M (2), Moracin M] | 2.1 ± 0.22 µM | 1.08 ± 0.04 µM | 333 ± 20.5 µM | 3.32 µM | Mixed | 
7 | O=c1cc(-c2ccc(O)cc2O)oc2cc(O)cc(O)c12 [Norartocarpetin (6), Norartocarpetin] | 77.3 ± 9.58 µM | 3.01 ± 0.15 µM | > 100 µM | 19.9 µM | Mixed | PTP1B-inhibitory activity (PTP1B [2]; at 100 μg/mL): no PTP1B-inhibitory activity; IC50 (PTP1B [2]; mean ± SD of triplicate experiments, read-out: IC50 Values PTP1B): > 349 µM; PTP1B inhibition (PTP1B [4]): 20%
8 | Oc1cc(O)cc(/C=C/c2ccc(O)cc2O)c1 [Oxyresveratrol (5), Oxyresveratrol] | 7.56 ± 0.15 µM | 2.37 ± 0.21 µM |  |  | Mixed | Ki (PTP1B [3]): 2.16 µM; IC50 (PTP1B [2]; PTP1B IC50, mean ± SD of triplicate experiments): 2.85 ± 0.3 µM; Ki (α-glucosidase): 1.14 µM
